Test results taken from patent US6620842B2, “Chalcones” (Indena SpA, priority 1999, dated 2003).

Tests used:
[1] = Cytotoxicity of the compounds alone against drug-resistant cancer cells; conditions: human, MDA-435/LCC-MDR cells (drug-resistant cancer cells)
Experimental: (§1) The treatment consisted of concurrent exposure of MDA-435/LCC-MDR cells to paclitaxel in the presence or absence of the compounds reversing agent (1 μM) for 72 h in vitro. Assessment of cytotoxicity, i.e. cell growth inhibition, was determined according to the methods of Skehan, et al. as discussed in J. Nat.
(§2) Briefly, cells were plated between 400 and 1200 cells/well in 96 well plates and incubated at 37° C. for 15-18 h prior to drug addiction to allow attachment of cells. Compounds were solubilized in 100% DMSO and further diluted in RPMI-1640 containing 10 mM HEPES. After a 72 h incubation, 100 μl of ice-cold 50% TCA was added to each well and incubated for 1 h at 40° C. Plates were then washed 5 times with tap water to remove TCA, low-molecular weight metabolites and serum proteins. Suforhodamine B (SRB) (0.4%, 50 μl) was added to each well. Following a five minute incubation at room temperature, plates were rinsed 5 times with 0.1% acetic acid and air dried. Bound dye was solubilized with 10 mM Tris Base (pH 10.5) for 5 mm on a gyratory shaker. Optical density was measured at 570 nm.

[2] = system: drug-resistant cancer cells
Experimental: as §1, §2

[3] = system: drug-resistant breast cancer cells MDA-435/LCC6-MDR; assay: Cytostatic activity of paclitaxel alone or in combination with the compounds (SRB cell growth inhibition); format: cell-based; conditions: IC50 of paclitaxel alone or in presence of compound (reversing agent, 1 μM), MDA-435/LCC6-MDR cells, 72 h
Experimental: The compounds were then evaluated in combination with paclitaxel for their cytostatic activity against the drug-resistant breast cancer cells MDA-435/LCC6-MDR.
In the experiments, the compounds were used in combination with paclitaxel, the paclitaxel being at a concentration of 0.3 μM.
Cancer Inst, 82, 1107, 1990.

For `COc1cc(C=CC(=O)c2c(OCC=C(C)C)ccc3c(=O)c(C)c(-c4ccccc4)oc23)cc(OC)c1OC` [VIB 173, 1-[3-Methyl-7-(3-Methylbut-2-Enyloxy)Flavon-8-yl]-3-(3,4,5-Tri-Methoxy)Phenyl-Propen-1-one], the IC50 at 72 h [1] was > 1 µM.

With `COc1cc(C=CC(=O)c2c(OCC=C(C)C)ccc3c(=O)c4ccccc4oc23)cc(OC)c1OC` [VIB 178, 1-[3-(3-Methylbut-2-Enyloxy)Xanthen-9-one-4-yl]-3-(3,4,5-Tri-Methoxyphenyl)-Propen-1-one] the IC50 at 72 h [1] was > 1 µM.

In the case of “1-[3-Methyl-7-(Prop-2-ynyloxy)flavon-8-yl]-Phenyl-Propen-1-one [VIB 167]”, the IC50 [2] is reported as > 1 µM.

`CC(=O)O[C@H]1C(=O)[C@@]2(C)[C@H]([C@H](OC(=O)c3ccccc3)[C@]3(O)C[C@H](OC(=O)[C@H](O)[C@@H](NC(=O)c4ccccc4)c4ccccc4)C(C)=C1C3(C)C)[C@]1(OC(C)=O)CO[C@@H]1C[C@@H]2O` [Paclitaxel, paclitaxel] gave an IC50 [3] of 426 nM.
